Measured values taken from patent US7462717B2, “C6-and C9-substituted chromeno[4,3-c]isoxazoline derivatives and their use as anti-depressants” (Janssen Pharmaceutica N.V., priority 2002, dated 2008).

Assays:
[1] = molecular target: T1, hα2B receptor (Homo sapiens, UniProt P18089); experiment: Radioligand binding experiment for α2B-adrenergic receptor ([3H]-raulwolscine); settings: membranes of CHO cells transfected with human α2B receptor; [3H]raulwolscine 1 nM
T1 construct: expressed in transfected cells
T1 sequence (P18089 1-450): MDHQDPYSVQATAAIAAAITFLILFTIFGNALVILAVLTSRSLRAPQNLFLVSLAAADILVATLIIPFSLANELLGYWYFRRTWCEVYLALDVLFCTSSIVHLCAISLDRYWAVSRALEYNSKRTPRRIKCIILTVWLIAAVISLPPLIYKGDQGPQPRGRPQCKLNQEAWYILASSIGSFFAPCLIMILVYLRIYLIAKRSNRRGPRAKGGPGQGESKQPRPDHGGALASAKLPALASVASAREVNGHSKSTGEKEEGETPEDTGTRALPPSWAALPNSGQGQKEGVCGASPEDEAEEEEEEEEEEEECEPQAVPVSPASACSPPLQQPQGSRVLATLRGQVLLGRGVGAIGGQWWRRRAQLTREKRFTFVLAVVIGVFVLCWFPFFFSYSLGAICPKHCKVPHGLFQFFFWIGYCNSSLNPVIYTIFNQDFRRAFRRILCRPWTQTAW
Experimental: (§1) The interaction of the compounds of Formula (I) with hα2-receptors and h5-HT-transporters was assessed in in vitro radioligand binding experiments. In general, a low concentration of a radioligand with a high binding affinity for a particular receptor or transporter is incubated with a sample of a tissue preparation enriched in a particular receptor or transporter or with a preparation of cells expressing cloned human receptors in a buffered medium. During the incubation, the radioligand binds to the receptor or transporter. When equilibrium of binding is reached, the receptor bound radioactivity is separated from the non-bound radioactivity, and the receptor- or transporter-bound activity is counted. The interaction of the test compounds with the receptor is assessed in competition binding experiments. Various concentrations of the test compound are added to the incubation mixture containing the receptor- or transporter preparation and the radioligand. The test compound in proportion to its binding affinity and its concentration inhibits binding of the radioligand. The radioligand used for hα2A, hα2B and hα2C receptor binding was [^3H]-raulwolscine and for the h5-HT transporter was [^3H]paroxetine.
(§2) CHO cells, stabile transfected with human adrenergic-α2A-, -α2B or α2C receptor cDNA, were cultured in Dulbecco's Modified Eagle's Medium (DMEM)/Nutrient mixture Ham's F12 (ratio 1:1) (Gibco, Gent-Belgium) supplemented with 10% heat inactivated fetal calf serum (Life Technologies, Merelbeke-Belgium) and antibiotics (100 IU/ml penicillin G, 100 μg/ml streptomycin sulphate, 110 μg/ml pyruvic acid and 100 μg/ml L-glutamine). One day before collection, cells were induced with 5 mM sodiumbutyrate. Upon 80-90% of confluence, cells were scraped in phosphate buffered saline without Ca^2+ and Mg^2+ and collected by centrifugation at 1500×g for 10 min. The cells were homogenised in Tris-HCl 50 mM using an Ultraturrax homogenizer and centrifuged for 10 min at 23,500×g. The pellet was washed once by resuspension and rehomogenization and the final pellet was resuspended in Tris-HCl, divided in 1 ml aliquots and stored at −70° C.
(§3) Membranes were thawed and re-homogenized in incubation buffer (glycylglycine 25 mM, pH 8.0). In a total volume of 500 μl, 2-10 μg protein was incubated with [^3H]raulwolscine (NET-722) (New England Nuclear, USA) (1 nM final concentration) with or without competitor for 60 min at 25° C. followed by rapid filtration over GF/B filter using a Filtermate 196 harvester (Packard, Meriden, Conn.). Filters were rinsed extensively with ice-cold rinsing buffer (Tris-HCl 50 mM pH 7.4). Filter-bound radioactivity was determined by scintillation counting in a Topcount (Packard, Meriden, Conn.) and results were expressed as counts per minute (cpm). Non-specific binding was determined in the presence of 1 μM oxymetazoline for hα2A- and hα2B-receptors and 1 μM spiroxatrine for hα2C receptors.
(§4) Data from assays in the presence of compound were calculated as a percentage of total binding measured in the absence of test compound. Inhibition curves, plotting percent of total binding versus the log value of the concentration of the test compound, were automatically generated, and sigmoidal inhibition curves were fitted using non-linear regression. The pIC50 values of test compounds were derived from individual curves. All compounds according to Formula (I) produced an inhibition at least at the hα2A site (but often also at the hα2B and hα2C sites) and simultaneously at the 5-HT transporter site of more than 50% (PIC50) at a test concentration ranging between 10^−6 M and 10^−9 M in a concentration-dependent manner.

[2] = molecular target: T2, hα2C receptor (Homo sapiens, UniProt P18825); experiment: Radioligand binding experiment for α2C-adrenergic receptor ([3H]-raulwolscine); settings: membranes of CHO cells transfected with human α2C receptor; [3H]raulwolscine 1 nM
T2 construct: expressed in transfected cells
T2 sequence (P18825 1-462): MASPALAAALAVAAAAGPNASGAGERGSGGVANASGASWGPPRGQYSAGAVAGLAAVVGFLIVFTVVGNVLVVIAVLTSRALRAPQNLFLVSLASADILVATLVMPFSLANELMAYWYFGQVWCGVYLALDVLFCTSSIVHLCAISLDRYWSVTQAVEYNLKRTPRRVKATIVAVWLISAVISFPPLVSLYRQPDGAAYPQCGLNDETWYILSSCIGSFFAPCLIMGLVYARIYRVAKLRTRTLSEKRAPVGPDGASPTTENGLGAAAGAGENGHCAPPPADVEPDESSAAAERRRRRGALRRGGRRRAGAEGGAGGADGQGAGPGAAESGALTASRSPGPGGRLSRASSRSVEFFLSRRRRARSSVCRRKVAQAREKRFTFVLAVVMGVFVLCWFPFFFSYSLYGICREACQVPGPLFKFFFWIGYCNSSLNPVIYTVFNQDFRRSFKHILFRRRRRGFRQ
Experimental: as §1, §2, §3, §4

[3] = molecular target: T3, h5-HT transporter (Homo sapiens, UniProt P31645); experiment: Radioligand binding experiment for 5-HT transporter ([3H]paroxetine); settings: human platelet membranes; [3H]paroxetine 0.5 nM; read-out: 5-HTT (converted)
T3 construct: Human platelet membranes (Oceanix Biosciences Corporation, Hanover, Md., USA) were thawed; tissue Oceanix Biosciences Corporation; host or cells: human platelet membranes
T3 sequence (P31645 whole entry): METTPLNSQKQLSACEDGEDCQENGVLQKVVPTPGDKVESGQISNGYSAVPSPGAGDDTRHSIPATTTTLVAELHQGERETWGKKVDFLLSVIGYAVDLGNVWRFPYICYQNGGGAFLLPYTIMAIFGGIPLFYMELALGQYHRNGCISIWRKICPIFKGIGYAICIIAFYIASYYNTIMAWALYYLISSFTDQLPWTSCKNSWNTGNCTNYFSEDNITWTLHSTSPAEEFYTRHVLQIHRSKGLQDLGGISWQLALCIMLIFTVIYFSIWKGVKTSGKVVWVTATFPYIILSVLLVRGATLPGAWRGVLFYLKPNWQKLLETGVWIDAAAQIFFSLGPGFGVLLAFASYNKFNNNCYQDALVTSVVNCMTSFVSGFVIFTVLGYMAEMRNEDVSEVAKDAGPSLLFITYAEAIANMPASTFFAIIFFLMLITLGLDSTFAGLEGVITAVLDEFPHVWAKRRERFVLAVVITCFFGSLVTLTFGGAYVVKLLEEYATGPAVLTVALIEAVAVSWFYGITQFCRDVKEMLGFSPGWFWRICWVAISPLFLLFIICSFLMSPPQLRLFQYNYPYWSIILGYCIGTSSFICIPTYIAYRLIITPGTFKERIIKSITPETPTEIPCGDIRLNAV
Experimental: as §1
Human platelet membranes (Oceanix Biosciences Corporation, Hanover, Md., USA) were thawed, diluted in buffer (Tris-HCl 50 mM, 120 mM NaCl and 5 mM KCl) and quickly (max 3 s) homogenised with an Ultraturrax homogenizer. In a total volume of 250 μL, 50-100 μg protein was incubated with [^3H]paroxetine (NET-869) (New England Nuclear, USA) (0.5 nM final concentration) with or without competitor for 60 min at 25° C. Incubation was stopped by rapid filtration of the incubation mixture over GF/B filters, pre-wetted with 0.1% polyethyleneamine, using a Filtermate 196 harvester (Packard, Meriden, Conn.). Filters were rinsed extensively with ice-cold buffer and radioactivity on the filters was counted in a Topcount liquid scintillation counter (Packard, Meriden, Conn.). Data were expressed as cpm. Imipramine (at 1 μM final concentration) was used to determine the non-specific binding.
as §4

[4] = molecular target: T4, hα2A receptor (Homo sapiens, UniProt P08913); experiment: Radioligand binding experiment for α2A-adrenergic receptor ([3H]-raulwolscine); settings: membranes of CHO cells transfected with human α2A receptor; [3H]raulwolscine 1 nM
T4 construct: expressed in transfected cells
T4 sequence (P08913 1-465): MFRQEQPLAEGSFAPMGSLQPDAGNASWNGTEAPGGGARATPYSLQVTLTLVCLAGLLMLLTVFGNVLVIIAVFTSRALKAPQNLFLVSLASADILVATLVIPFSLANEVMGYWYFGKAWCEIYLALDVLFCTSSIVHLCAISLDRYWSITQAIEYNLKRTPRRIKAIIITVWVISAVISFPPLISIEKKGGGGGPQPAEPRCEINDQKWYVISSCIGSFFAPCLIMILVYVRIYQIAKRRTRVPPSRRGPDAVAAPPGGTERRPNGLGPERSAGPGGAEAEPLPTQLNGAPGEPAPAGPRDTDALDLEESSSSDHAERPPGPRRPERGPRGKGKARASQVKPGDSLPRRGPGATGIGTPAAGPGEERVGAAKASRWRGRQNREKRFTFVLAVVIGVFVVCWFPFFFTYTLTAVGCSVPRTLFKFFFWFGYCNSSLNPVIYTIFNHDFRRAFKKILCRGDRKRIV
Experimental: as §1, §2, §3, §4

Row | SMILES | IC50 [1] [nM] | IC50 [2] [nM] | IC50 [3] [nM] | IC50 [4] [nM]
1 | COCC(=O)OCCOc1cccc2c1OCC1C2=NOC1CN1CCN(CC(C)=Cc2ccccc2)CC1 (stereo not shown) [Compound 12] | 6.31 | 3.98 | 126 | 126
2 | COc1cccc2c1OC[C@@H]1C2=NO[C@H]1CN1CCN(C/C(C)=C/c2ccccc2)CC1 (relative stereo) [Compound 6, 6-methoxy-3-[4-(2-methyl-3-phenyl-allyl)-piperazin-1-ylmethyl]-3a,4-dihydro-3H-chromeno[4,3-c]isoxazole] | 2 | 1.58 | 50.1 | 7.94
3 | COc1cc2c(c(N3CCC3=O)c1OC)OCC1C2=NOC1CN1CCN(CC(C)=Cc2ccc(F)cc2)CC1 (stereo not shown) [Compound 20] | 25.1 | 31.6 | 126 | 79.4
4 | CC(=Cc1ccccc1)CN1CCN(CC2ON=C3c4cccc(NCCN5CCCC5)c4OCC32)CC1 (stereo not shown) [Compound 16] | 3.98 | 7.94 | 25.1 | 39.8
5 | CC(=Cc1ccccc1)CN1CCN(CC2ON=C3c4cccc(OCCO)c4OCC32)CC1 (stereo not shown) [Compound 11] | 2.51 | 3.16 | 50.1 | 3.16
6 | COC(=O)c1c(OC)c(OC)cc2c1OCC1C2=NOC1CN1CCN(C/C(C)=C/c2ccccc2)CC1 (single isomer, unassigned) [Compound 5] | 5.01 | 1.26 | 158 | 2
7 | COCC(=O)OCCOc1cccc2c1C1=NOC(CN3CCN(CC(C)=Cc4ccccc4)CC3)C1CO2 (stereo not shown) [Compound 14] | 3.16 | 1.26 | 1000 | 2.51
